Data as given in BigSolDB 2.1.

COc1ccc(C(=O)O)c(OC)c1OC
solubility (mole fraction)
Details | 278.15 K | 283.15 K | 288.15 K | 293.15 K | 298.15 K | 303.15 K | 308.15 K | 313.15 K | 318.15 K
in 2-butoxyethanol | 0.0838 | 0.0944 | 0.113 | 0.127 | 0.148 | 0.167 | 0.185 | 0.207 | 0.25
in 2-ethoxyethanol | 0.179 | 0.207 | 0.238 | 0.264 | 0.289 | 0.318 | 0.353 | 0.39 | 0.431
in 2-methoxyethanol | 0.11 | 0.127 | 0.154 | 0.168 | 0.194 | 0.213 | 0.233 | 0.26 | 0.283
in ethanol | 0.0482 | 0.0585 | 0.0733 | 0.0926 | 0.116 | 0.154 | 0.199 | 0.27 | 0.3
in ethyl acetate | 0.066 | 0.0792 | 0.0992 | 0.112 | 0.13 | 0.174 | 0.236 | 0.283 | 0.301
in ethylene glycol | 0.0165 | 0.0188 | 0.0227 | 0.0281 | 0.036 | 0.0421 | 0.0501 | 0.0635 | 0.0828
in isopropanol | 0.0261 | 0.0363 | 0.0496 | 0.069 | 0.0801 | 0.102 | 0.129 | 0.158 | 0.186
in isopropyl acetate | 0.0412 | 0.0495 | 0.0584 | 0.0692 | 0.0778 | 0.0892 | 0.0988 | 0.115 | 0.137
in n-butyl acetate | 0.047 | 0.0574 | 0.0673 | 0.0751 | 0.0832 | 0.0991 | 0.12 | 0.136 | 0.168
in n-propanol | 0.0312 | 0.0405 | 0.0538 | 0.072 | 0.082 | 0.104 | 0.129 | 0.161 | 0.189
in n-propyl acetate | 0.0357 | 0.0454 | 0.0549 | 0.0722 | 0.0829 | 0.106 | 0.13 | 0.162 | 0.189
in water | 0.000331 | 0.000419 | 0.000497 | 0.000553 | 0.000703 | 0.000892 | 0.00109 | 0.00134 | 0.00152
